{"source": "patent US20140249135A1", "about": "“PIM KINASE INHIBITORS AND METHODS OF THEIR USE” (NOVARTIS AG, priority 2007, published 2014)", "assay_type_in_all_cases": "biochemical", "key": {"Pim1 kinase": {"molecular_target": "Pim1 kinase (Homo sapiens, UniProt P11309)", "sequence (P11309 whole entry)": "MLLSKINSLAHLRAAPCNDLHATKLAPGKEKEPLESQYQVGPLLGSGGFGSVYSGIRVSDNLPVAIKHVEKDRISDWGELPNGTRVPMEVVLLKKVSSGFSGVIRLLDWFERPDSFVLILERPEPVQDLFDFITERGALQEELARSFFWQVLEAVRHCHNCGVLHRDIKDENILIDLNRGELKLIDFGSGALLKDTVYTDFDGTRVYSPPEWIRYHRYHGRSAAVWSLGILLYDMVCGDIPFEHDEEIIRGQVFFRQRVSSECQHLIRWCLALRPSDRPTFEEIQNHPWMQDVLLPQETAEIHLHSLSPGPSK", "assay": "Pim1 ATP depletion assay;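 also: Luciferase-luciferin luminescence readout of residual ATP after PIM1 transfers phosphate to a peptide substrate, 40 µM ATP added, reaction run to roughly half ATP consumption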", "details": "Pim1 ATP depletion assay"}, "Pim2 kinase": {"molecular_target": "Pim2 kinase (Homo sapiens, UniProt Q9P1W9)", "sequence (Q9P1W9 whole entry)": "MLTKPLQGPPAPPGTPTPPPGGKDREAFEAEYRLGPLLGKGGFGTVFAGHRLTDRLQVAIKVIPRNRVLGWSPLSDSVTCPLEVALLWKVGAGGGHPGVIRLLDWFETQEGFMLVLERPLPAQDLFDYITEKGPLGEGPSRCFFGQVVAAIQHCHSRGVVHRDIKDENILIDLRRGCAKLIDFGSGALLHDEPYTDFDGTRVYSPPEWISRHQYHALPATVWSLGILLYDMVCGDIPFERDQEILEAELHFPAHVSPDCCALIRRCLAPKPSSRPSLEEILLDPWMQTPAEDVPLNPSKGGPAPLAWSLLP", "assay": "Pim2 ATP depletion assay;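 also: Luciferase-based luminescent readout of ATP remaining after PIM2 phosphorylates a BAD peptide, final 5 nM enzyme, 4 µM ATP, 10 µM peptide, 2.5% DMSO, run to roughly half ATP consumption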"}, "Pim3 kinase": {"molecular_target": "Pim3 kinase (Homo sapiens, UniProt Q86V86)", "assay": "Pim3 ATP depletion assay"}}, "note": "Like-named read-outs stand apart in the source and are kept apart here.", "data": [{"smiles": "Nc1ccc(-c2c(F)ccc(OCc3ccccc3Cl)c2F)nc1C(=O)Nc1cnccc1N1CCC[C@H](N)C1", "note": "[Example 464, 3-Amino-6-[3-(2-chloro-benzyloxy)-2,6-difluoro-phenyl]-pyridine-2-carboxylic acid (3-amino-3,4,5,6-tetrahydro-2H-[1,4′]bipyridinyl-3′-yl)-amide]", "values": [{"measurement": "IC50", "setting": "Pim1 kinase; read-out: IC50 (μM) PIM1", "value": "< 1", "unit": "µM"}, {"measurement": "IC50", "setting": "Pim2 kinase; read-out: IC50 (μM) PIM2", "value": "< 1", "unit": "µM"}, {"measurement": "IC50", "setting": "Pim3 kinase; read-out: IC50 (μM) PIM3", "value": "< 1", "unit": "µM"}]}, {"smiles": "N[C@H]1CCCN(c2ccncc2NC(=O)c2ccc(F)c(-c3ccccc3F)n2)C1", "note": "[Example 444, 5-Fluoro-6-(2-fluoro-phenyl)-pyridine-2-carboxylic acid (3-amino-3,4,5,6-tetrahydro-2H-[1,4′]bipyridinyl-3′-yl)-amide]", "values": [{"measurement": "IC50", "setting": "Pim1 kinase; read-out: IC50 (μM) PIM1", "value": "< 1", "unit": "µM"}, {"measurement": "IC50", "setting": "Pim2 kinase; read-out: IC50 (μM) PIM2", "value": "< 1", "unit": "µM"}, {"measurement": "IC50", "setting": "Pim3 kinase; read-out: IC50 (μM) PIM3", "value": "< 1", "unit": "µM"}]}, {"smiles": "CCOc1cncc(-c2nc(C(=O)Nc3cnccc3N3CCC[C@H](N)C3)c(N)cc2F)n1", "note": "[Example 740, 3-Amino-6-(6-ethoxy-pyrazin-2-yl)-5-fluoro-pyridine-2-carboxylic acid (3-amino-3,4,5,6-tetrahydro-2H-[1,4′]bi-pyridinyl-3′-yl)-amide]", "values": [{"measurement": "IC50", "setting": "Pim1 kinase; read-out: PIM1 IC50", "value": "< 1", "unit": "µM"}, {"measurement": "IC50", "setting": "Pim2 kinase; read-out: PIM2 IC50", "value": "< 1", "unit": "µM"}, {"measurement": "IC50", "setting": "Pim3 kinase; read-out: PIM3 IC50", "value": "< 1", "unit": "µM"}]}, {"smiles": "COc1nccnc1-c1ccc(N)c(C(=O)Nc2cnccc2N2CCC[C@H](N)C2)n1", "note": "[Example 694, 3-Amino-6-(3-methoxy-pyrazin-2-yl)-pyridine-2-carboxylic acid (3-amino-3,4,5,6-tetrahydro-2H-[1,4′]bipyridinyl-3′-yl)-amide]", "values": [{"measurement": "IC50", "setting": "Pim1 kinase; read-out: PIM1 IC50", "value": "< 1", "unit": "µM"}, {"measurement": "IC50", "setting": "Pim2 kinase; read-out: PIM2 IC50", "value": "< 1", "unit": "µM"}, {"measurement": "IC50", "setting": "Pim3 kinase; read-out: PIM3 IC50", "value": "< 1", "unit": "µM"}]}, {"smiles": "Nc1cc(F)c(-c2c(F)ccc(O)c2F)nc1C(=O)Nc1cnccc1N1CCC[C@H](N)C1", "note": "[Example 751, 3-Amino-N-(4-((S)-3-aminopiperidin-1-yl)pyridin-3-yl)-6-(2,6-difluoro-3-hydroxyphenyl)-5-fluoropicolinamide]", "values": [{"measurement": "IC50", "setting": "Pim1 kinase; read-out: PIM1 IC50", "value": "< 1", "unit": "µM"}, {"measurement": "IC50", "setting": "Pim2 kinase; read-out: PIM2 IC50", "value": "< 1", "unit": "µM"}, {"measurement": "IC50", "setting": "Pim3 kinase; read-out: PIM3 IC50", "value": "< 1", "unit": "µM"}]}, {"smiles": "NC1CC(CO)CN(c2ccncc2NC(=O)c2ccc(F)c(-c3ccccc3F)n2)C1", "note": "(stereo not drawn) [Example 289, 5-Fluoro-6-(2-fluoro-phenyl)-pyridine-2-carboxylic acid (5-amino-3-hydroxymethyl-3,4,5,6-tetrahydro-2H-[1,4′]bipyridinyl-3′-yl)-amide]", "values": [{"measurement": "IC50", "setting": "Pim1 kinase; read-out: IC50 (μM) PIM1", "value": "< 1", "unit": "µM"}, {"measurement": "IC50", "setting": "Pim2 kinase; read-out: IC50 (μM) PIM2", "value": "< 1", "unit": "µM"}, {"measurement": "IC50", "setting": "Pim3 kinase; read-out: IC50 (μM) PIM3", "value": "< 1", "unit": "µM"}]}, {"smiles": "Nc1cc(-c2ccncc2NC(=O)c2nc(C3=CCNCC3)ccc2N)nc(C(F)(F)F)n1", "note": "[Example 526, 5-Amino-1′,2′,3′,6′-tetrahydro-[2,4′]bipyridinyl-6-carboxylic acid [4-(6-amino-2-trifluoromethyl-pyrimidin-4-yl)-byridin-3-yl]-amide]", "values": [{"measurement": "IC50", "setting": "Pim1 kinase; read-out: IC50 (μM) PIM1", "value": "< 1", "unit": "µM"}, {"measurement": "IC50", "setting": "Pim2 kinase; read-out: IC50 (μM) PIM2", "value": "< 1", "unit": "µM"}, {"measurement": "IC50", "setting": "Pim3 kinase; read-out: IC50 (μM) PIM3", "value": "< 1", "unit": "µM"}]}, {"smiles": "Nc1cc(-c2ccncc2NC(=O)c2cccc(-c3ccc(F)cc3F)n2)nc(C(F)(F)F)n1", "note": "[Example 527, 6-(2,4-Difluoro-phenyl)-pyridine-2-carboxylic acid [4-(6-amino-2-trifluoromethyl-pyrimidin-4-yl)-pyridin-3-yl]-amide]", "values": [{"measurement": "IC50", "setting": "Pim1 kinase; read-out: IC50 (μM) PIM1", "value": "< 1", "unit": "µM"}, {"measurement": "IC50", "setting": "Pim2 kinase; read-out: IC50 (μM) PIM2", "value": "< 1", "unit": "µM"}, {"measurement": "IC50", "setting": "Pim3 kinase; read-out: IC50 (μM) PIM3", "value": "< 1", "unit": "µM"}]}, {"smiles": "Cc1cc(Cl)cnc1-c1ccc(N)c(C(=O)Nc2cnccc2N2CCC[C@H](N)C2)n1", "note": "[Example 701, 5-Amino-5′-chloro-3′-methyl-[2,2′]bipyridinyl-6-carboxylic acid (3-amino-3,4,5,6-tetra-hydro-2H-[1,4′]bipyridinyl-3′-yl)-amide]", "values": [{"measurement": "IC50", "setting": "Pim1 kinase; read-out: PIM1 IC50", "value": "< 1", "unit": "µM"}, {"measurement": "IC50", "setting": "Pim2 kinase; read-out: PIM2 IC50", "value": "< 1", "unit": "µM"}, {"measurement": "IC50", "setting": "Pim3 kinase; read-out: PIM3 IC50", "value": "< 1", "unit": "µM"}]}, {"smiles": "CC1CC(N)CN(c2ccncc2NC(=O)c2ccc(F)c(-c3ccccc3F)n2)C1", "note": "(stereo not drawn) [Example 287, 5-Fluoro-6-(2-fluoro-phenyl)-pyridine-2-carboxylic acid (3-amino-5-methyl-3,4,5,6-tetra-hydro-2H-[1,4′]bipyridinyl-3′-yl)-amide]", "values": [{"measurement": "IC50", "setting": "Pim3 kinase; read-out: IC50 (μM) PIM3", "value": "< 1", "unit": "µM"}]}, {"smiles": "Nc1ccc(C2CCCCC2)nc1C(=O)Nc1cnccc1N1CCC[C@H](N)C1", "note": "[Example 636, 3-Amino-6-cyclohexyl-pyridine-2-carboxylic acid (3-amino-3,4,5,6-tetrahydro-2H-[1,4′]bipyridinyl-3′-yl)-amide]", "values": [{"measurement": "IC50", "setting": "Pim1 kinase; read-out: PIM1 IC50", "value": "< 1", "unit": "µM"}, {"measurement": "IC50", "setting": "Pim3 kinase; read-out: PIM3 IC50", "value": "< 1", "unit": "µM"}]}]}
